24 compounds from patent US5256686A, “Phenylalkan(en)oic acid” (Ono Pharmaceutical Co., Ltd., priority 1989, dated 1993) can be followed below.

The test system of one data set is Human PMNLs. The data set is described as follows: Inhibition of human PMNLs aggregation (LTB4-induced). The class given is cell-based. The following applies: PMNL, LTB4 10^-8 M solution, 3 min preincubation at 37° C., pH 7.4. On the procedure:
ii) Inhibition of Human PMNLs aggregation
The purified human PMNLs were suspended in Hank's-0.5% BSA medium (pH 7.4) at 1×10^7 cells/ml. The PMNLs suspentions (200 μl) were preincubated with varying concentrations of tasted compounds for 3 min at 37° C. prior to the addition of 10^-8 M solution ([…]) of LTB4 in Hank's solution. PMNLs aggregation in vitro was performed with a multichannel platelet aggregometer. Aggregation was detected as change in light transmission with an aggregometer.

In another data set the target is T1, human PMNL LTB4 receptor (Homo sapiens, UniProt Q15722).
T1 construct: endogenous in cells; host or cells: human polymorphonuclear leukocytes (PMNL), intact cells
T1 sequence (Q15722 whole entry): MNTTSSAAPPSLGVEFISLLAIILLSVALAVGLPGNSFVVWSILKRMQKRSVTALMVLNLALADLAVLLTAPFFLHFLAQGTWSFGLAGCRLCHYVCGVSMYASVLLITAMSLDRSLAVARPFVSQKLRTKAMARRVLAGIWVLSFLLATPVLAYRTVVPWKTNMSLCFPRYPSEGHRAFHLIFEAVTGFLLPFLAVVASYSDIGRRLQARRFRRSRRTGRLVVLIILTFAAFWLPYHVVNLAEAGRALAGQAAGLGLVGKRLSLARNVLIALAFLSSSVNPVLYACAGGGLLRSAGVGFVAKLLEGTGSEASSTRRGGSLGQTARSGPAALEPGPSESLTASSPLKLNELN
The data set is described as follows: Binding affinity of 3H-LTB4 antagonist to human PMNL LTB4 receptor (inhibition of specific 3H-LTB4 binding). The following applies: 1 nM 3H-LTB4, human PMNLs, 4° C., 20 min. How it is done: Human PMNLS (1×10^7 cells) were incubated with 1 nM ^3 H-LTB4 in Hanks balanced salt solution (1 ml) at 4° C. for 20 min. in the presence or absence of increasing concentrations of unlabeled LTB4 or various compounds. Free ^3 H-LTB4 was separated from PMNLs-bound ligands by vacuum filteration through Whatman GF/B or C glass fiber filters. The filters were then washed rapidly 4 times with 2.5 ml of the ice-cold phosphate buffered saline. The radioactivity retained in the filter was determined by liquid scintillation counting. Specific binding was defined as the difference between total binding and binding in the presence of 3 μM LTB4 (nonspecific binding). The inhibitory effect of specific ^3 H-LTB4 binding was calculated from the following equation.
The percentage of inhibition (%)=100-(B1 /B0 ×100)
B1 : specific ^3 H-LTB4 binding in presence of antagonist
B0 : specific ^3 H-LTB4 binding in absence of antagonist

Data set [1] can be described thus: Acute toxicity (LD50) in mouse. The following applies: in vivo. The text has this: It was confirmed that the toxicity of the compounds, of the present invention were very low. […] Accordingly, it was confirmed that the compounds of the present invention were useful for pharmaceutical agent.

As a reminder, the IC50 is the concentration that gives 50% inhibition. A low value points to inhibition by little substance. For `COc1ccc(/C=C/CCCCOc2ccc(NC(=O)CCCC(=O)N(C)C)cc2CCC(=O)O)cc1` [1 (a), 3-[1-[6-(4-methoxyphenyl)hex-5E-enyl]oxy-4-(4-dimethylaminocarbonylbutanamido)benzen-2-yl]propionic acid], the IC50 in the data set with Human PMNLs stood at 3600 nM; on human PMNL LTB4 receptor, 45 nM.

As for `COc1ccc(/C=C/CCCCOc2ccc(NC(=O)CCCC(=O)Nc3nccs3)cc2CCC(=O)O)cc1` [1 (o), 3-[1-[6-(4-methoxyphenyl)hex-5E-enyl]oxy-4-[4-(2-thiazolyl)aminocarbonylbutanamido]benzen-2-yl]propionic acid], the 50% inhibitory concentration (IC50) with Human PMNLs is 3000 nM; at human PMNL LTB4 receptor it was 20 nM.

For `COc1ccc(/C=C/CCCCOc2ccc(NC(=O)c3cccc(C(=O)O)c3)cc2CCC(=O)O)cc1` [2 (b), 3-[1-[6-(4-methoxyphenyl)hex-5E-enyl]oxy-4-(3-carboxylbenzamido)benzen-2-yl]propionic acid], the results for the IC50 with Human PMNLs and on human PMNL LTB4 receptor were 7400 nM and 20 nM, respectively.

In the case of `COc1ccc(/C=C/CCCCOc2cccc(OCCCCN3CCCC3=O)c2CCC(=O)O)cc1` [30 (a), 3-[1-[6-(4-methoxyphenyl)hex-5E-enyl]oxy-3-[4-(2-pyrrolidon-1-yl)-n-butoxy]benzen-2-yl]propionic acid], the figures for the half-inhibitory concentration (IC50) with Human PMNLs and at human PMNL LTB4 receptor were 1100 nM and 70 nM, respectively.

By LD50 is commonly meant the dose expected to kill half of the subjects tested. Read a high LD50 as lower toxicity. With `COc1ccc(/C=C/CCCCOc2cccc(OCCCCC(=O)O)c2CCC(=O)O)cc1` [31 (a), 3-[1-[6-(4-methoxyphenyl)hex-5E-enyl]oxy-3-(4-carboxylbutyl)oxybenzen-2-yl]propionic acid], in the data set on Human PMNLs, the half-inhibitory concentration (IC50) was 1900 nM. The LD50 in data set [1] (intravenous administration) came to 260 mg/kg; in data set [1] (oral administration), 2200 mg/kg.

As to `COc1ccc(/C=C/CCCCOc2ccc(N3C(=O)CCCS3(=O)=O)cc2CCC(=O)O)cc1` [Example 12, 3-[1-[6-(4-methoxyphenyl)hex-5E-enyl]oxy-4-(perhydro-1,2-thiazin-1,1,3-trione-2-yl]benzen-2-yl]propionic acid], the IC50 on human PMNL LTB4 receptor came out at 7 nM.

Compound `CCCCCCCCC(O)/C=C/CCCCOc1ccc(N2C(=O)CCCS2(=O)=O)cc1CCC(=O)O` (stereo not shown) [Example 13, 3-[1-(5E-7-hydroxy-n-pentadecenyl)oxy-4-(perhydro-1,2-thiazin-1,1,3-trione-2-yl)benzen-2-yl]propionic acid] came in with an IC50 on human PMNL LTB4 receptor of 45 nM.

Regarding `COc1ccc(/C=C/CCCCOc2ccc(OCCCCC(=O)O)cc2CCC(=O)O)cc1` [Example 14, 3-[1-[6-(4-methoxyphenyl)hex-5E-enyl]oxy-4-(4-carboxylbutoxy)benzen-2-yl]propionic acid], the concentration for half-maximal inhibition (IC50) at human PMNL LTB4 receptor came out at 70 nM.

Take `COc1ccc(/C=C/CCCCOc2ccc(OCCCCC(=O)N(C)C)cc2CCC(=O)O)cc1` [Example 16, 3-[1-[6-(4-methoxyphenyl)hex-5E-enyl]oxy-4-(4-dimethylaminocarbonyl-n-butyl)oxybenzen-2-yl]propionic acid]: the IC50 amounted to 7000 nM in the data set with Human PMNLs and 90 nM on human PMNL LTB4 receptor.

`COc1ccc(/C=C/CCCCOc2ccc(CCCCC(=O)N(C)C)cc2CCC(=O)O)cc1` [Example 18, 3-[1-[6-(4-methoxyphenyl)hex-5E-enyl]oxy-4-(4-dimethylaminocarbonylbutyl)benzen-2-yl]propionic acid] registered an IC50 on human PMNL LTB4 receptor of 25 nM.

`COc1ccc(/C=C/CCCCOc2ccc(C(=O)CCCC(=O)N(C)C)cc2CCC(=O)O)cc1` [Example 19, 3-[1-[6-(4-methoxyphenyl)hex-5E-enyl]oxy-4-(1-oxo-4-dimethylaminocarbonylbutyl)benzen-2-yl]propionic acid] yielded a half-maximal inhibitory concentration (IC50) at human PMNL LTB4 receptor of 30 nM.

Regarding `COc1ccc(/C=C/CCCCOc2ccc(C(O)CCCC(=O)N(C)C)cc2CCC(=O)O)cc1` (stereo not shown) [Example 20, 3-[1-[6-(4-methoxyphenyl)hex-5E-enyl]oxy-4-(1-hydroxy-4-dimethylaminocarbonylbutyl)benzen-2-yl]propionic acid], the IC50 in the data set with Human PMNLs was found to be 2000 nM; at human PMNL LTB4 receptor, 3.6 nM.

Consider `CCCCCCCCC(O)/C=C/CCCCOc1cccc(OCCCCC(=O)N(C)C)c1CCC(=O)O` (stereo not shown) [Example 29, 3-[1-(5E-7-hydroxypentadecenyl)oxy-3-(4-dimethylaminocarbonylbutyl)oxybenzen-2-yl]propionic acid], for which the half-inhibitory concentration (IC50) on human PMNL LTB4 receptor came out at 18 nM.

For the compound `COc1ccc(/C=C/CCCCOc2cccc(OCCCCC(=O)N(C)C)c2CCC(=O)O)cc1` [Example 30, 3-[1-[6-(4-methoxyphenyl)hex-5E-enyl]oxy-3-(4-dimethylaminocarbonylbutyl)oxybenzen-2-yl]propionic acid], the concentration for half-maximal inhibition (IC50) turned out to be 840 nM in the data set on Human PMNLs and 16 nM on human PMNL LTB4 receptor. The LD50 was 175 mg/kg in data set [1] (intravenous administration) and 3900 mg/kg in data set [1] (oral administration).

Take `COc1ccc(/C=C/CCCCOc2cccc(OCCCC(=O)O)c2CCC(=O)O)cc1` [Example 31, 3-[1-[6-(4-methoxyphenyl)hex-5E-enyl]oxy-3-(3-carboxylpropyl)oxybenzen-2-yl]propionic acid]: the IC50 with Human PMNLs stood at 6000 nM; on human PMNL LTB4 receptor it was 40 nM.

For `COc1ccc(/C=C/CCCCOc2cccc(NC(=O)CCCC(=O)N(C)C)c2CCC(=O)O)cc1` [Example 32, 3-[1-[6-(4-methoxyphenyl)hex-5E-enyl]oxy-3-(4-dimethylaminocarbonylbutanamido)benzen-2-yl]propionic acid], the IC50 in the data set with Human PMNLs was found to be 5400 nM; on human PMNL LTB4 receptor, 50 nM.

In the case of `COc1ccc(/C=C/CCCCOc2cccc(CCCCCC(=O)O)c2CCC(=O)O)cc1` [Example 33, 3-[1-[6-(4-methoxyphenyl)hex-5E-enyl]oxy-3-(5-carboxylpentyl)benzen-2-yl]propionic acid], the IC50 on human PMNL LTB4 receptor was 15 nM.

As to `COc1ccc(/C=C/CCCCOc2cccc(CCCCCC(=O)N(C)C)c2CCC(=O)O)cc1` [Example 34, 3-[1-[6-(4-methoxyphenyl)hex-5E-enyl]oxy-3-(5-dimethylaminocarbonylpentyl)benzen-2-yl]propionic acid], the IC50 was 810 nM in the data set on Human PMNLs and 20 nM at human PMNL LTB4 receptor.

For the compound `COc1ccc(/C=C/CCCCOc2cccc(N(S(C)(=O)=O)S(C)(=O)=O)c2CCC(=O)O)cc1` [Example 35, 3-[1-[6-(4-methoxyphenyl)hex-5E-enyl]oxy-3-dimesylaminobenzen-2-yl]propionic acid], the IC50 at human PMNL LTB4 receptor stood at 200 nM.

For the compound `COc1ccc(/C=C/CCCCOc2cccc(N3C(=O)CCCS3(=O)=O)c2CCC(=O)O)cc1` [Example 36, 3-[1-[6-(4-methoxyphenyl)hex-5E-enyl]oxy-3-(perhydro-1,2-thiazin-1,1,3-trione-2-yl)benzen-2-yl]propionic acid], at human PMNL LTB4 receptor, the IC50 was determined as 150 nM.

Take `COc1ccc(/C=C/CCCCOc2cccc(C(=O)CCCCC(=O)O)c2CCC(=O)O)cc1` [Example 37, 3-[1-[6-(4-methoxyphenyl)hex-5E-enyl]oxy-3-(1-oxo-5-carboxylpentyl)benzen-2-yl]propionic acid]: the figures for the 50% inhibitory concentration (IC50) in the data set with Human PMNLs and on human PMNL LTB4 receptor were 1700 nM and 6 nM, respectively.

With `COc1ccc(/C=C/CCCCOc2cccc(C(O)CCCCC(=O)O)c2CCC(=O)O)cc1` (stereo not shown) [Example 38, 3-[1-[6-(4-methoxyphenyl)hex-5E-enyl]oxy-3-(1-hydroxy-5-carboxylpentyl)benzen-2-yl]propionic acid], the 50% inhibitory concentration (IC50) amounted to 4900 nM in the data set with Human PMNLs and 120 nM at human PMNL LTB4 receptor.

As for `COc1ccc(/C=C/CCCCOc2cccc(C(=O)CCCCC(=O)N(C)C)c2CCC(=O)O)cc1` [Example 39, 3-[1-[6-(4-methoxyphenyl)hex-5E-enyl]oxy-3-(1-oxo-5-dimethylaminocarbonylpentyl)benzen-2-yl]propionic acid], at human PMNL LTB4 receptor, the IC50 was 23 nM.

As to `COc1ccc(/C=C/CCCCOc2cccc(C(O)CCCCC(=O)N(C)C)c2CCC(=O)O)cc1` (stereo not shown) [Example 40, 3-[1-[6-(4-methoxyphenyl)hex-5E-enyl]oxy-3-(1-hydroxy-5-dimethylaminocarbonylpentyl)benzen-2-yl]propionic acid], the IC50 on human PMNL LTB4 receptor turned out to be 170 nM.
